Values of other authors as cited in publication PMC7926623 (Marine Drugs, 2021).

Test system: rα6/α3β2β3 nAChR
Conditions: cited from earlier work

Substance: α-Conotoxin TxIB
- IC50: 28.4 nM
